Measurements published in the NIST ThermoML archive (doi:10.1016/j.jct.2005.06.011).

Columns and labels:
[1] = refractive index (Na D-line) (dimensionless); xn = mol fraction of the nth substance listed; conditions: 101 kPa, Liquid
[2] = xn = mol fraction of the nth substance listed; conditions: 101 kPa, Liquid; for speed of sound: Linear variable-path acoustic interferometer

CC1CCCCC1 [methylcyclohexane] + CC(C)CO
Conditions | mass density, 298.15 K [kg/m3] | mass density, 303.15 K [kg/m3] | mass density, 308.15 K [kg/m3] | refractive index, 298.15 K | refractive index, 303.15 K | refractive index, 308.15 K | speed of sound, 298.15 K [m/s] | viscosity, 298.15 K [mPa·s] | viscosity, 303.15 K [mPa·s] | viscosity, 308.15 K [mPa·s]
[1], x1 = 0.1003 | – | – | – | 1.397 | 1.3945 | 1.392 | – | – | – | –
[1], x1 = 0.2006 | – | – | – | 1.4 | 1.3975 | 1.395 | – | – | – | –
[1], x1 = 0.3008 | – | – | – | 1.4031 | 1.4005 | 1.3979 | – | – | – | –
[1], x1 = 0.4037 | – | – | – | 1.4059 | 1.4033 | 1.4007 | – | – | – | –
[1], x1 = 0.5066 | – | – | – | 1.4088 | 1.4061 | 1.4034 | – | – | – | –
[1], x1 = 0.6052 | – | – | – | 1.4114 | 1.4088 | 1.4062 | – | – | – | –
[1], x1 = 0.7038 | – | – | – | 1.4141 | 1.4115 | 1.409 | – | – | – | –
[1], x1 = 0.8025 | – | – | – | 1.4167 | 1.414 | 1.4113 | – | – | – | –
[1], x1 = 0.9011 | – | – | – | 1.4194 | 1.4165 | 1.4135 | – | – | – | –
[1], x1 = 1 | – | – | – | 1.4217 | 1.4192 | 1.4163 | – | – | – | –
[2], x1 = 0.1003 | 802.66 | 798.47 | 794.29 | – | – | – | 1175 | 2.499 | 2.17 | 1.841
[2], x1 = 0.2006 | 796.44 | 792.18 | 787.91 | – | – | – | 1179 | 2.037 | 1.79 | 1.542
[2], x1 = 0.3008 | 790.71 | 786.35 | 782.02 | – | – | – | 1183 | 1.63 | 1.44 | 1.248
[2], x1 = 0.4037 | 785.47 | 781.09 | 776.69 | – | – | – | 1188 | 1.359 | 1.209 | 1.058
[2], x1 = 0.5066 | 780.72 | 776.29 | 771.86 | – | – | – | 1193 | 1.12 | 1.017 | 0.9138
[2], x1 = 0.6052 | 776.53 | 772.08 | 767.64 | – | – | – | 1198 | 0.9911 | 0.906 | 0.821
[2], x1 = 0.7038 | 772.84 | 768.37 | 763.92 | – | – | – | 1202 | 0.8637 | 0.7964 | 0.729
[2], x1 = 0.8025 | 769.44 | 764.99 | 760.54 | – | – | – | 1207 | 0.7897 | 0.7317 | 0.6738
[2], x1 = 0.9011 | 766.63 | 762.18 | 757.75 | – | – | – | 1212 | 0.7162 | 0.6676 | 0.6189
[2], x1 = 1 | 764.99 | 760.66 | 756.3 | – | – | – | 1217 | 0.6757 | 0.631 | 0.5902
